Source: paper PMC12449377, “Psychedelic-like effects induced by 2,5-dimethoxy-4-iodoamphetamine, lysergic acid diethylamide, and psilocybin in male and female C57BL/6J mice” (Psychopharmacology, 2025)
Where two headings read alike, the source gives them in different places.

Legend:
C57BL/6J mice [1] = experiment: Head twitch response (HTR) in mice; assay type: in vivo, mouse; settings: for HTR (total events) Mean: 30 min; for ED50: Mus musculus, sc; for HTR ♀ Emax (95% CI) / HTR ♂ Emax (95% CI): top of regression fit
Procedure: Each drug was tested using groups of 12 mice per sex (i.e., 24 total mice per drug). Experimental sessions were conducted once every 1–2 weeks for 2 months per drug. Experimental sessions were spaced apart by at least 1 week to minimize the potential for tolerance to drug effects (Canal and Morgan [2012]; Darmani et al. [1990a]; de la Fuente Revenga et al. [2022]). Experiments were conducted during the light phase (1300–1700 local time; lights on = 0700 in a 12/12 light/dark cycle).
(§1) At 1–2 weeks prior to the beginning of experiments, mice were habituated to handling and receiving s.c. saline injections. On the day of an experiment, mice were acclimated to the testing room in their home cage for at least 30 min prior to the start of sessions. Prior to each session, mice were weighed, and resting body temperatures were recorded. Mice were then placed into experimental chambers for acclimation. Behavioral testing was carried out in TruScan mouse locomotor arenas equipped with photobeam arrays (Coulbourn Instruments, Holliston, MA, USA) that were modified with cylindrical inserts and transparent flooring to aid in semi-automated HTR detection as previously described (Glatfelter et al. [2022a]). After 5 min of acclimation, basal body temperature was recorded followed by s.c. injection of drug or vehicle, and mice were returned to test chambers for 30 min. Dose ranges for each drug were 0.03–10 mg/kg for DOI, 0.03–10 mg/kg for psilocybin, and 0.003–1 mg/kg for LSD. Mice were randomly assigned to specific doses at the beginning of the experiment and received different doses at each session.
(§2) During each session, locomotor activity was quantified via photobeam tracking of distance traveled in cm. Overhead GoPro Hero Black 7 video recordings (120 fps, 960p resolution) were analyzed using a commercially available software package from Clever Sys Inc. (Reston, VA, USA) for the measurement of HTR activity. Mouse body temperature was also collected post-session to calculate temperature change values (basal - post session temperature reading).
(§3) Concentration-response data were fit to a single site non-linear regression model. For the HTR studies, potencies were determined from the ascending limb of the dose-response curves using ED50 potency values from [agonist] vs. response (variable slope, four parameter) least squares fit non-linear regression analyses, whereas efficacy was defined by the top output parameter or Emax from the aforementioned analyses. […] Best-fit values for ED50 and Emax from non-linear regression analyses were compared by extra sum-of-squares F tests. Mean effects for each behavioral endpoint were compared using two-way ANOVA (dose x sex), followed by Sidak’s multiple comparisons post-hoc test. Mean effects for pooled mouse behavioral data were compared via Welch’s ANOVA with Dunnett’s T3 post-hoc test, comparing all doses to saline vehicle controls (0 mg/kg). Alpha was set to 0.05 for all analyses.

C57BL/6J mice [2] = experiment: Body temperature change in mice; assay type: in vivo, mouse; settings: post 30 min session
Procedure: All mice were injected s.c. with temperature transponders (14 × 2 mm, model IPTT-300, Avidity Science, Waterford Wisconsin, USA) under brief isoflurane immobilization, and were given at least 1 week to recover (Glatfelter et al. [2022b]). Mice were single housed post-implant, and for the duration of the experiments, to protect their devices from being removed by cage mates. Temperature was measured noninvasively using a handheld reader which is sensitive to the transponder signals.
as §1, §2, §3

C57BL/6J mice [3] = experiment: Locomotor activity (distance traveled) in mice; assay type: in vivo, mouse; settings: for Locomotor Activity (cm) Mean: 30 min
Procedure: as §1, §2, §3

C57BL/6J mice [4] = settings: range over Table 1 and earlier studies; ref Glatfelter et al. [2022b], Sherwood et al. [2020]; cited from earlier work

SMILES: CN(C)CCc1c[nH]c2cccc(OP(=O)(O)O)c12 [Psilocybin, 4-phosphoryloxy-N,N-dimethyltryptamine]
- HTR (total events) Mean (C57BL/6J mice [1]; 0.03 mg/kg s.c., female mice): 8.0 total events
- HTR (total events) Mean (C57BL/6J mice [1]; 0.03 mg/kg s.c., male mice): 7.6 total events
- HTR (total events) Mean (C57BL/6J mice [1]; 0.03 mg/kg s.c., pooled sexes): 7.8 total events
- HTR (total events) Mean (C57BL/6J mice [1]; 0.1 mg/kg s.c., female mice): 11.8 total events
- HTR (total events) Mean (C57BL/6J mice [1]; 0.1 mg/kg s.c., male mice): 13.0 total events
- HTR (total events) Mean (C57BL/6J mice [1]; 0.1 mg/kg s.c., pooled sexes): 12.4 total events
- HTR (total events) Mean (C57BL/6J mice [1]; 0.3 mg/kg s.c., female mice): 27.3 total events
- HTR (total events) Mean (C57BL/6J mice [1]; 0.3 mg/kg s.c., male mice): 26.8 total events
- HTR (total events) Mean (C57BL/6J mice [1]; 0.3 mg/kg s.c., pooled sexes): 27.1 total events
- HTR (total events) Mean (C57BL/6J mice [1]; 1 mg/kg s.c., female mice): 30.2 total events
- HTR (total events) Mean (C57BL/6J mice [1]; 1 mg/kg s.c., male mice): 39.2 total events
- HTR (total events) Mean (C57BL/6J mice [1]; 1 mg/kg s.c., pooled sexes): 34.7 total events
- HTR (total events) Mean (C57BL/6J mice [1]; 3 mg/kg s.c., female mice): 47.2 total events
- HTR (total events) Mean (C57BL/6J mice [1]; 3 mg/kg s.c., male mice): 29.4 total events
- HTR (total events) Mean (C57BL/6J mice [1]; 3 mg/kg s.c., pooled sexes): 38.3 total events
- HTR (total events) Mean (C57BL/6J mice [1]; 10 mg/kg s.c., female mice): 21.8 total events
- HTR (total events) Mean (C57BL/6J mice [1]; 10 mg/kg s.c., male mice): 18.7 total events
- HTR (total events) Mean (C57BL/6J mice [1]; 10 mg/kg s.c., pooled sexes): 20.3 total events
- ED50 (C57BL/6J mice [1]; female mice, ascending limb of dose-response curve, read-out: HTR ♀ ED50 (95% CI)): 0.31 mg/kg
- ED50 (C57BL/6J mice [1]; male mice, ascending limb of dose-response curve, read-out: HTR ♂ ED50 (95% CI)): 0.17 mg/kg
- ED50 (C57BL/6J mice [1]; pooled male and female mice, read-out: HTR ♂+♀ ED50 (95% CI)): 0.22 mg/kg
- Duration of HTR effect in the session (C57BL/6J mice [1]; peak/active doses, 30 min session): trended to baseline levels by the end of the testing session
- Time of peak effects on HTR post drug administration (C57BL/6J mice [1]; s.c., both sexes, 30 min session): 5 to 10 min
- HTR ♀ Emax (95% CI) (C57BL/6J mice [1]; s.c., female mice): 43 (35–54) HTR events
- HTR ♀ Emax (95% CI) (C57BL/6J mice [1]; s.c., female mice, listed as psilocybin): 43 HTR events
- HTR ♂ Emax (95% CI) (C57BL/6J mice [1]; s.c., male mice): 35 (30–40) HTR events
- HTR ♂ Emax (95% CI) (C57BL/6J mice [1]; s.c., male mice, listed as psilocybin): 35 HTR events
- HTR ♂+♀ Emax (95% CI) (C57BL/6J mice [1]; s.c., pooled male and female mice): 38 (33–47) HTR events
- Body Temp Δ (°C) Mean (C57BL/6J mice [2]; 0.03 mg/kg s.c., female mice): 0.2 °C
- Body Temp Δ (°C) Mean (C57BL/6J mice [2]; 0.03 mg/kg s.c., male mice): -0.4 °C
- Body Temp Δ (°C) Mean (C57BL/6J mice [2]; 0.03 mg/kg s.c., pooled sexes): -0.1 °C
- Body Temp Δ (°C) Mean (C57BL/6J mice [2]; 0.1 mg/kg s.c., female mice): 0.1 °C
- Body Temp Δ (°C) Mean (C57BL/6J mice [2]; 0.1 mg/kg s.c., male mice): 0.3 °C
- Body Temp Δ (°C) Mean (C57BL/6J mice [2]; 0.1 mg/kg s.c., pooled sexes): 0.2 °C
- Body Temp Δ (°C) Mean (C57BL/6J mice [2]; 0.3 mg/kg s.c., female mice): 0.04 °C
- Body Temp Δ (°C) Mean (C57BL/6J mice [2]; 0.3 mg/kg s.c., male mice): 0.1 °C
- Body Temp Δ (°C) Mean (C57BL/6J mice [2]; 0.3 mg/kg s.c., pooled sexes): 0.1 °C
- Body Temp Δ (°C) Mean (C57BL/6J mice [2]; 1 mg/kg s.c., female mice): 0.0 °C
- Body Temp Δ (°C) Mean (C57BL/6J mice [2]; 1 mg/kg s.c., male mice): -1.0 °C
- Body Temp Δ (°C) Mean (C57BL/6J mice [2]; 1 mg/kg s.c., pooled sexes): -0.4 °C
- Body Temp Δ (°C) Mean (C57BL/6J mice [2]; 3 mg/kg s.c., female mice): -1.0 °C
- Body Temp Δ (°C) Mean (C57BL/6J mice [2]; 3 mg/kg s.c., male mice): -1.3 °C
- Body Temp Δ (°C) Mean (C57BL/6J mice [2]; 3 mg/kg s.c., pooled sexes): -1.2 °C
- Body Temp Δ (°C) Mean (C57BL/6J mice [2]; 10 mg/kg s.c., female mice): -3.3 °C
- Body Temp Δ (°C) Mean (C57BL/6J mice [2]; 10 mg/kg s.c., male mice): -4.1 °C
- Body Temp Δ (°C) Mean (C57BL/6J mice [2]; 10 mg/kg s.c., pooled sexes): -3.7 °C
- Locomotor Activity (cm) Mean (C57BL/6J mice [3]; 0.03 mg/kg s.c., female mice): 2480.4 cm
- Locomotor Activity (cm) Mean (C57BL/6J mice [3]; 0.03 mg/kg s.c., male mice): 2063.8 cm
- Locomotor Activity (cm) Mean (C57BL/6J mice [3]; 0.03 mg/kg s.c., pooled sexes): 2272 cm
- Locomotor Activity (cm) Mean (C57BL/6J mice [3]; 0.1 mg/kg s.c., female mice): 2686.5 cm
- Locomotor Activity (cm) Mean (C57BL/6J mice [3]; 0.1 mg/kg s.c., male mice): 2877.2 cm
- Locomotor Activity (cm) Mean (C57BL/6J mice [3]; 0.1 mg/kg s.c., pooled sexes): 2782 cm
- Locomotor Activity (cm) Mean (C57BL/6J mice [3]; 0.3 mg/kg s.c., female mice): 3293.8 cm
- Locomotor Activity (cm) Mean (C57BL/6J mice [3]; 0.3 mg/kg s.c., male mice): 3064.5 cm
- Locomotor Activity (cm) Mean (C57BL/6J mice [3]; 0.3 mg/kg s.c., pooled sexes): 3179 cm
- Locomotor Activity (cm) Mean (C57BL/6J mice [3]; 1 mg/kg s.c., female mice): 2900.9 cm
- Locomotor Activity (cm) Mean (C57BL/6J mice [3]; 1 mg/kg s.c., male mice): 3532.9 cm
- Locomotor Activity (cm) Mean (C57BL/6J mice [3]; 1 mg/kg s.c., pooled sexes): 3188 cm
- Locomotor Activity (cm) Mean (C57BL/6J mice [3]; 3 mg/kg s.c., female mice): 2041.8 cm
- Locomotor Activity (cm) Mean (C57BL/6J mice [3]; 3 mg/kg s.c., male mice): 2018.9 cm
- Locomotor Activity (cm) Mean (C57BL/6J mice [3]; 3 mg/kg s.c., pooled sexes): 2029 cm
- Locomotor activity effect (C57BL/6J mice [3]; 10 mg/kg s.c.): decreased locomotor activity
- Locomotor Activity (cm) Mean (C57BL/6J mice [3]; 10 mg/kg s.c., female mice): 962.1 cm
- Locomotor Activity (cm) Mean (C57BL/6J mice [3]; 10 mg/kg s.c., male mice): 741.5 cm
- Locomotor Activity (cm) Mean (C57BL/6J mice [3]; 10 mg/kg s.c., pooled sexes): 851.8 cm
- Locomotor activity effect (C57BL/6J mice [3]; 0.3–1 mg/kg s.c.): mild increases in locomotor activity
- ED50 doses inducing HTR in C57BL/6J mice (C57BL/6J mice [4]): 0.22 to 0.40 mg/kg
